For one data set, the system named is mTOR. As to the kind of experiment: mTOR status in HMEC after incubation with peptides (anti-mTor antibody Ser2448). Format: cell-based, human. The procedure: (§1) Human EC grown in EGM-2MV (80% confluence) were incubated with the peptides of the invention or vehicle for the indicated time, washed three times in cold PBS and directly lysed in 2 ml of ice-cold lysis buffer (10 mM Tris pH 7.5, 150 mM NaCl, 1 mM PMSF, 0.5 μg/ml leupeptin, 1 μg/ml pepstatin A, and 1 μg/ml aprotinin) by incubation for 30 min at 4° C. Cell lysate were spun at […] for 10 min, insoluble materials were discarded, and protein contents measured by Bradford assay of supernatants were adjusted. Cell lysate (1 ml) was precleared with 25 μl of protein G-plus agarose beads (Santa Cruz) for 30 min, and proteins were then immunoprecipitated by adding 2 μg of the indicated antibody and incubated for 1 hr. The immunocomplex was pulled down with protein G-plus agarose beads and the beads were washed three times with lysis buffer. The immunoprecipitates were separated by NuPAGE® 4-12% Bis-Tris gel electrophoresis under reducing conditions, transferred to PVDF membrane (Novex System, Invitrogen), and the membrane was blocked with 5% (w/v) non-fat milk in TBS containing 0.1% v/v Tween-20 for 1 hr.
The status of mTOR in the HMEC following incubation with peptides GS-0 and GS-1 was investigated.

Data set [1] can be described thus: Solubility of peptides in 10% DMSO in PBS. Format: physicochemical. As to conditions: 1 mg of peptide/ml of 10% DMSO in PBS. The procedure: GS-1 as well as the control peptide GS-0 were solubilized in DMSO and the resulting solutions were diluted 10 times with phosphate buffer saline (PBS) to obtain a concentration of 1 mg of peptide/ml of 10% DMSO in PBS. At this concentration, all peptides were soluble in 10% DMSO.
GS-2 as well as the control peptide GS-0 were solubilized in DMSO and the resulting solutions were diluted 10 times with phosphate buffer saline (PBS) to obtain a concentration of 1 mg of peptide/ml of 10% DMSO in PBS. At this concentration, all peptides were soluble in 10% DMSO.

The subject of the next data set is NCI-H460 tumors. As to the kind of experiment: NCI-H460 tumor xenograft in nude mice, tumor volume (Example 3). The class given is in vivo. As for the experimental part: H460 cell line has cytology compatible with human Non-Small Cell Lung Cancer (NSCL). Cells were grown in MEM medium containing 10% FCS at 37° C., 5% CO2 humidified atmosphere. The absence of mycoplasms was confirmed by using the PCR Mycoplasma Detection kit (Takara). All experiments were reviewed by the Genopole's institutional animal care and use committee and were performed in accordance with institutional guidelines for animal care. Female BALB/c nu/nu mice (n=30) were used at 5-6 weeks of age. The animals were housed in laminar air-flow cabinets under pathogen-free conditions with a 12 h light/12 h dark schedule, and fed autoclaved standard chow and water ad libitum. The NCI-H460 human NSCL cell line was obtained from American Type Culture Collection (ATCC) were grown in RPMI medium 1640 supplemented with 1 μM sodium pyruvate. Tumor cells (10^7 cells in 200 μl of HBSS) were injected subcutaneously into the right flanks of mice. After engraftment, tumor volume was measured by Vernier callipers, and calculated as described in Balsam A et al. (Balsari A et al. (2004) Eur J Cancer 40: 1275-1281). At tumor volume about 150 mm^3, animals were randomized, and separated into five groups of five animals. Control mice (group 1) were intraperitoneally injected with vehicle (10% DMSO in buffer saline) every day. GS-0 was dissolved in vehicle and intraperitoneally injected (group 2) every day (12 injections). GS-2 was dissolved in vehicle and intraperitoneally injected (group 3) every day (12 injections). Tumor volume and body weight were measured every other day over the treatment period (12 days). GS-2 as well as the control peptide GS-0 were solubilized in DMSO and the resulting solutions were diluted 10 times with phosphate buffer saline (PBS) to obtain a concentration of 1 mg of peptide/ml of 10% DMSO in PBS. At this concentration, all peptides were soluble in 10% DMSO.

The subject of data set [2] is human microvascular endothelial cells (HMEC). Kind of data set: In vitro angiogenesis assay (Matrigel tube formation). Format: cell-based. Conditions: 500 μg/ml final concentration of peptide, images at 18 h. As for the experimental part:
Angiogenesis of human microvascular endothelial cells (HMEC) was induced in vitro using a Matrigel assay described by Al-Mahmood et al (2009, JPET, 2009; 58:933). This method is based on the differentiation of endothelial cells to form capillary structures on a Matrigel Matrix. Matrigel is prepared the Engelbreth-Holm-Swarm (EHS) mouse tumor, which represents a complex mixture of basement membrane proteins including type IV collagen, entactin, proteo-heparan sulfate and other growth factors.
Briefly, 250 μl of Matrigel were transferred to each well of a 24-well culture plate and incubated at 37° C. for 30 min to allow for the matrix solution to solidify. HMEC grown in complete growth medium EGM-2MV were harvested by trypsin, suspended in the same growth medium and 500 μl containing 70 000 cells were added on top of the solidified Matrigel in each well and in the presence or absence of peptide. Cells were maintained in a humidified atmosphere air containing 5% CO2 at 37° C. for 18-24 hrs. Endothelial tube formation was observed and photographed under an inverted light microscope.
The designed tyrosine phosphorylated and non phosphorylated peptides were tested for their influence onto the in vitro angiogenesis. The results of the in vitro angiogenesis assay were presented in FIG. 1, using HMEC and 500 μg/ml final concentration of each peptide.

For data set [3], the target named is T1, recruitment of the regulatory subunit (p85) of the enzyme PI-3K by IRS-1 (Homo sapiens, UniProt P27986).
T1 construct: endogenous in cells; host or cells: human microvascular endothelial cells (HMEC)
As to the kind of experiment: Recruitment of p85 of PI-3K by IRS-1 (IRS-1 immunoprecipitation, anti-p85 immunoblot) in HMEC. Conditions: final concentration of peptide 500 μg/ml. Format: cell-based. As for the experimental part:
as §1
As it is widely admitted that the tyrosine phosphorylation of IRS-1 leads to its association with the regulatory subunit (p85) of the enzyme PI-3K, and this event lead to important increases in the enzymatic activity of this later, we have investigated the influence of the tyrosine phosphorylated and non phosphorylated peptides onto the recruitment of the regulatory subunit (p85) of the enzyme PI-3K by IRS-1. For that, human microvascular endothelial cells (HMEC) were incubated with the tyrosine phosphorylated and non phosphorylated peptides (final concentration of peptide 500 μg/ml) followed by cells lysis and immuoprecipitation of the protein IRS-1. The immunoprecipitates were then resolved in SDS-PAGE, proteins were transferred to membranes, and the membranes were immunoblotted with an anti-p85 PI3K monoclonal antibody.
In general terms: In western blotting, separated proteins are transferred to a membrane and probed.

Data set [4] is described as follows: Body weight and toxicity of mice bearing NCI-H460 tumors (Example 3). The class given is in vivo. The procedure:
All experiments were reviewed by the Genopole's institutional animal care and use committee and were performed in accordance with institutional guidelines for animal care. Female BALB/c nu/nu mice (n=30) were used at 5-6 weeks of age. The animals were housed in laminar air-flow cabinets under pathogen-free conditions with a 12 h light/12 h dark schedule, and fed autoclaved standard chow and water ad libitum. […] Tumor cells (10^7 cells in 200 μl of HBSS) were injected subcutaneously into the right flanks of mice. […] At tumor volume about 150 mm^3, animals were randomized, and separated into five groups of five animals. Control mice (group 1) were intraperitoneally injected with vehicle (10% DMSO in buffer saline) every day. GS-0 was dissolved in vehicle and intraperitoneally injected (group 2) every day (12 injections). GS-2 was dissolved in vehicle and intraperitoneally injected (group 3) every day (12 injections). Tumor volume and body weight were measured every other day over the treatment period (12 days).

Each structure is given as a SMILES string. “Also recorded” adds a separate entry of the source. Where a SMILES comes first, the peptide text is derived from it. [ ]: non-standard residue; d: D form. pY = N[C@@H](Cc1ccc(OP(=O)(O)O)cc1)C(=O)O

T1 sequence (P27986 whole entry): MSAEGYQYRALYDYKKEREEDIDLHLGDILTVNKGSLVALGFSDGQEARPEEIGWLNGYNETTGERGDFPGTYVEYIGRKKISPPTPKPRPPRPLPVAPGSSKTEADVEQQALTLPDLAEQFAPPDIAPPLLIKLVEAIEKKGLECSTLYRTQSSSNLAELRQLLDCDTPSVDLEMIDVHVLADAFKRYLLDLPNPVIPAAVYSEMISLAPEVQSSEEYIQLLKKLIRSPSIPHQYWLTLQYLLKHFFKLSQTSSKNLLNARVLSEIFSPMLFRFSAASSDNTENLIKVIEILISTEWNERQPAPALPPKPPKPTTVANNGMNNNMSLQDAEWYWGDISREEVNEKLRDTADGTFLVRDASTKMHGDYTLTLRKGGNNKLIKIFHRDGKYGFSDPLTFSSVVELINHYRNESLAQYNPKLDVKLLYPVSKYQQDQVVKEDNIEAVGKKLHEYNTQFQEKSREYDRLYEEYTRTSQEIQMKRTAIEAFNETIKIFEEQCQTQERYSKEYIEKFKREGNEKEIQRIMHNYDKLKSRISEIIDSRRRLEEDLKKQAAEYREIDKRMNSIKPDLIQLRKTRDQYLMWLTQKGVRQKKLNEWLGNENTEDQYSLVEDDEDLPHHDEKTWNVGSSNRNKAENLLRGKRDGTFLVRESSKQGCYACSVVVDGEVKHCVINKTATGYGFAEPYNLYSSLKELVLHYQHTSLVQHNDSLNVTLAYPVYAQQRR

As to `CSCC[C@H](NC(=O)[C@H](CC(N)=O)NC(=O)[C@H](CCSC)NC(=O)[C@H](Cc1ccc(OP(=O)(O)O)cc1)NC(=O)[C@H](CCC(=O)O)NC(C)=O)C(=O)N[C@@H](CC(=O)O)C(N)=O` [GS-2, EpYMNMD] (Ac-E[pY]MNMD-NH2), in the data set on mTOR, the “amounts of mTOR in HMEC relative to vehicle” value is “much less amounts of mTOR”. In addition, the “solubility in 10% DMSO” value in data set [1] is “soluble”. Also, in the data set on NCI-H460 tumors (8 mg/kg i.p. daily for 12 days), the “influence on the in vivo growth of the tumor NCI-H460 (in words)” value was “highly significant and potent influence; also recorded: statistically significant and potent anti-tumoral activity”. In addition, in the data set on NCI-H460 tumors (8 mg/kg i.p. daily for 12 days, n=5), the “mean tumor volume at the end of treatment” value was found to be 297.28 ± 142.67 mm^3. Further, the Mean tumor volume D1 in the data set with NCI-H460 tumors (Table 4, 8 mg/kg i.p. daily, day 1) amounted to 124 mm³. The Mean tumor volume D3 with NCI-H460 tumors (Table 4, 8 mg/kg i.p. daily, day 3) came to 129 mm³. The compound further registered a Mean tumor volume D5 with NCI-H460 tumors (Table 4, 8 mg/kg i.p. daily, day 5) of 163 mm³. For the same compound, the Mean tumor volume D7 with NCI-H460 tumors (Table 4, 8 mg/kg i.p. daily, day 7) is 174 mm³. In the data set on NCI-H460 tumors (Table 4, 8 mg/kg i.p. daily, day 9), this compound showed a Mean tumor volume D9 of 254 mm³. The same compound showed a Mean tumor volume D11 in the data set with NCI-H460 tumors (Table 4, 8 mg/kg i.p. daily, day 11) of 297 mm³. Also, the Mean tumor volume D13 in the data set on NCI-H460 tumors (Table 4, 8 mg/kg i.p. daily, day 13) turned out to be 297 mm³. Also, the “in vitro angiogenesis-inhibitory activity” value in data set [2] was “have in vitro angiogenesis-inhibitory activities”. Further, in data set [3], the “influence onto the recruitment of the regulatory subunit (p85) of PI3K by IRS-1” value is listed as “moderate inhibitory effects”. Besides, the “toxicity and body weight loss during treatment” value in data set [4] (8 mg/kg intraperitoneally every day, 12 injections) is “No toxicity and no body weight loss”. The “Mean body weight D1” value in data set [4] (Table 3, 8 mg/kg i.p. daily, day 1, in g) amounted to 22.59. In addition, in data set [4] (Table 3, 8 mg/kg i.p. daily, day 3, in g), the “Mean body weight D3” value stood at 22.32. Also, the “Mean body weight D5” value in data set [4] (Table 3, 8 mg/kg i.p. daily, day 5, in g) is recorded as 22.78. The “Mean body weight D7” value in data set [4] (Table 3, 8 mg/kg i.p. daily, day 7, in g) is listed as 23.10. In data set [4] (Table 3, 8 mg/kg i.p. daily, day 9, in g), the “Mean body weight D9” value is on record as 23.00. In addition, the “Mean body weight D11” value in data set [4] (Table 3, 8 mg/kg i.p. daily, day 11, in g) is reported as 23.51. For the same compound, in data set [4] (Table 3, 8 mg/kg i.p. daily, day 13, in g), the “Mean body weight D13” value was 23.05.
